System: HMLER CD24low cells
Experiment: Reactive Oxygen Species (ROS) levels by flow cytometry (CM-H2DCF-DA)
Assay type: cell-based, Human
Conditions: cells treated for 48 h
Protocol: Reactive Oxygen Species (ROS) levels were measured by flow cytometry or by confocal scanning immunofluorescence microscopy using CM-H2DCF-DA (C6827, invitrogen). Briefly, U2OS and HMLER CD24low cells were treated as indicated in FIG. 11 (30 nM, 500 nM or 1 μM of salinomycine, AM5 or AM23 or untreated during 48 h). Then, these cells were trypsined and incubated with 5 μM CM-H2DCF-DA at 37° C. for 40 min, washed once with PBS and were counterstained with DAPI (0.5 μg/ml) to exclude non-viable cells. The mean fluorescence intensity was determined as ROS production by flow cytometry with LSRFortessa™ cytometer (BD Bioscience, San Jose, Calif.). For immunofluorescence microscopy analysis, cells were seeded on coverslips and were treated with salinomycine derivatives (injection in culture medium then treatment during 24 h, 48 h and 72 h). LysoTracker® Red DND-99 (L-7528, Life technologies) was used to visualize lysosomes. Then, cells were fixed with 4% PFA/PBS. DAPI was used to visualize nuclear DNA. Cell images were obtained using a Deltavision real-time microscope (Applied Precision) or an ApoTome.2 microscope (Zeiss). ImageJ was used for further image processing.
FACS analysis of ROS in cells treated for 48 h is represented in FIG. 17.

C#CCN[C@@H]1C=C[C@]2(O[C@H]([C@@H](CC)C(=O)[C@@H](C)[C@@H](O)[C@H](C)C3O[C@@H](C(CC)C(=O)O)CC[C@@H]3C)[C@@H](C)C[C@H]2C)O[C@@]12CC[C@@](C)([C@H]1CC[C@](O)(CC)[C@H](C)O1)O2 (stereo partly shown) [AM5, Sal-Propargylamine]
ROS production under pharmacological inhibition of Cathepsin B: prevents AM5 from inducing ROS production

Source: patent US10287298B2, “Nitrogen-containing analogs of salinomycin, synthesis and use against cancer stem cells and malaria” (Centre National de la Recherche Scientifique (CNRS), priority 2014, dated 2019)
